Assay results from patent US8232406B2, “c-MET protein kinase inhibitors” (Vertex Pharmaceuticals Incorporated, priority 2006, dated 2012).

Target: c-MET (Homo sapiens, UniProt P08581)
Assay: Ki determination for the inhibition of c-MET (standard radiometric 33P-ATP kinase assay, polyE4Y substrate)
Type: biochemical
Conditions: 1.0 nM c-Met, 35 μM ATP, 0.5 mg/mL polyE4Y, 20 min; competitive tight-binding fit
Experimental: Ki Determination for the Inhibition of c-MET
Compounds of the invention were screened for their ability to inhibit c-MET kinase activity using a standard radiometric assay. Briefly, in this kinase assay the transfer of the terminal ^33P-phosphate in ^33P-ATP to substrate polyE4Y is interrogated. The assay was carried out in 96-well plates to a final volume of 100 μL per well containing 1.0 nM c-Met, 100 mM HEPES (pH 7.5), 10 mM MgCl2, 25 mM NaCl, 0.01% BSA, 1 mM DTT, 0.5 mg/mL polyE4Y, and 35 μM ATP. Accordingly, compounds of the invention were dissolved in DMSO to make 10 mM initial stock solutions. Serial dilutions in DMSO were then made to obtain the final solutions for the assay. A 1.5 μL aliquot of DMSO or inhibitor in DMSO was added to each well. The reaction was initiated by the addition of ^33P-ATP and polyE4Y (obtained from Sigma). After 20 min, the reaction was quenched with 50 μL of 30% trichloroacetic acid (TCA) containing 4 mM ATP. The reaction mixture was transferred to the 0.66 mm GF filter plates (Corning) and washed three times with 5% TCA. Following the addition of 50 μL of Ultimate Gold™ high efficiency scintillant (Packard Bioscience), the samples were counted in a Packard TopCount NXT Microplate Scintillation and Luminescence Counter (Packard BioScience). The Ki values were calculated using Microsoft Excel Solver macros to fit the data to the kinetic model for competitive tight-binding inhibition.

Sequence of c-MET (P08581 25-1390): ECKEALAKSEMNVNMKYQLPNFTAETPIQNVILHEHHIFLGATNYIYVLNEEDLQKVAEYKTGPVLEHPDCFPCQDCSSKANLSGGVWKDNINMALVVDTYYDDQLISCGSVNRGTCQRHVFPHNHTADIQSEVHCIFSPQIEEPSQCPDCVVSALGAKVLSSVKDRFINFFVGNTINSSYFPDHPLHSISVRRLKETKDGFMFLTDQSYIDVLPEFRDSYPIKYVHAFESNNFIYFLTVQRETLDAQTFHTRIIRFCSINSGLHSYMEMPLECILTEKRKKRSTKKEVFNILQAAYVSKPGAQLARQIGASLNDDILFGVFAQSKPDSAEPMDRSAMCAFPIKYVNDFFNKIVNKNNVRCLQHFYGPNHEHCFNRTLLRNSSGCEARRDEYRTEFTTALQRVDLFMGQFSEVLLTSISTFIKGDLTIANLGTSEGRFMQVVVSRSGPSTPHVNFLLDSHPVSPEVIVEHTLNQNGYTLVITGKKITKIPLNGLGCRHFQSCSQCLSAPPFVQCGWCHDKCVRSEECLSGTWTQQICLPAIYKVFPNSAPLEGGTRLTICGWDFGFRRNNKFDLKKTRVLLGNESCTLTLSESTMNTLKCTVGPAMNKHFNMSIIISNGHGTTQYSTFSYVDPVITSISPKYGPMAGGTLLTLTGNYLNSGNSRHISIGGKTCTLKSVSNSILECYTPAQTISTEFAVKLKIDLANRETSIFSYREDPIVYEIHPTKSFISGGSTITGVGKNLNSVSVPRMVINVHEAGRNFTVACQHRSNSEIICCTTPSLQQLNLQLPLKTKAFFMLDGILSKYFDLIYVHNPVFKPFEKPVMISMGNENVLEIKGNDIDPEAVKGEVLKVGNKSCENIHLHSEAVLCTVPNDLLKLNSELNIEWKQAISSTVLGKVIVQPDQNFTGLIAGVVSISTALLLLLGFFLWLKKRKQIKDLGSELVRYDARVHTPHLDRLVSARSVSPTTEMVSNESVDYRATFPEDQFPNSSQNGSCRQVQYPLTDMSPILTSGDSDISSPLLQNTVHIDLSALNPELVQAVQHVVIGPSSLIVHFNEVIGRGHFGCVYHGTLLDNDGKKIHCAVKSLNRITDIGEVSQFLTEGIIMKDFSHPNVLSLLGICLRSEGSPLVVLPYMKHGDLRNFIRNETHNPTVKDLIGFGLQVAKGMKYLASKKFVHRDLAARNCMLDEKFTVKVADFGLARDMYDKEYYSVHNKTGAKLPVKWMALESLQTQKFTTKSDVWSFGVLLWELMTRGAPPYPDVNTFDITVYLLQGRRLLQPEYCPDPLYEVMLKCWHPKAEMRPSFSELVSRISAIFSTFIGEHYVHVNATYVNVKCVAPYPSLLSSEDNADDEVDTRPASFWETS

| Compound | Ki [nM] |
| --- | --- |
| CC(=O)c1ccc(-c2cnc(N)c(-c3nnnn3-c3cccc(Cl)c3Cl)c2)cc1 [I-A-88] | 100 to 1000 |
| N#Cc1ccc(-c2cnc(N)c(-c3nnnn3-c3cccc(Cl)c3Cl)c2)cc1 [I-A-89] | 100 to 1000 |
| Nc1ncc(-c2ccc(CO)cc2)cc1-c1nnnn1-c1cccc(Cl)c1Cl [I-A-90] | ≤ 100 |
| Nc1ncc(-c2cnc3[nH]ccc3c2)cc1-c1nnnn1-c1cccc(Cl)c1Cl [I-A-92] | ≤ 100 |
| CCNC(=O)Nc1nc2cc(-c3cnc(N)c(-c4nnnn4-c4cccc(Cl)c4Cl)c3)c(F)cc2[nH]1 [I-A-93] | 100 to 1000 |
| Nc1ncc(-c2ccc(CN3CCCC3)cc2)cc1-c1nnnn1-c1cccc(Cl)c1Cl [I-A-94] | ≤ 100 |
| CN(C)CCCN(C)Cc1ccc(-c2cnc(N)c(-c3nnnn3-c3cccc(Cl)c3Cl)c2)cc1 [I-A-95] | ≤ 100 |
| Nc1ncc(-c2ccc(CN3CCC(CO)CC3)cc2)cc1-c1nnnn1-c1cccc(Cl)c1Cl [I-A-96] | ≤ 100 |
| Nc1ncc(-c2ccc(CN3CCC(O)CC3)cc2)cc1-c1nnnn1-c1cccc(Cl)c1Cl [I-A-97] | ≤ 100 |
| Nc1ncc(-c2ccc(CN3CCC(N4CCCCC4)CC3)cc2)cc1-c1nnnn1-c1cccc(Cl)c1Cl [I-A-98] | ≤ 100 |
| Nc1ncc(-c2ccc(CN3CCCC(CO)C3)cc2)cc1-c1nnnn1-c1cccc(Cl)c1Cl (stereo not drawn) [I-A-99] | ≤ 100 |
| CC(c1ccc(-c2cnc(N)c(-c3nnnn3-c3cccc(Cl)c3Cl)c2)cc1)N(C)C (stereo not drawn) [I-A-100] | ≤ 100 |
| COCCN(CCOC)Cc1ccc(-c2cnc(N)c(-c3nnnn3-c3cccc(Cl)c3Cl)c2)cc1 [I-A-101] | 100 to 1000 |
| CN(CCc1ccccn1)Cc1ccc(-c2cnc(N)c(-c3nnnn3-c3cccc(Cl)c3Cl)c2)cc1 [I-A-102] | 100 to 1000 |
| CC1CN(Cc2ccc(-c3cnc(N)c(-c4nnnn4-c4cccc(Cl)c4Cl)c3)cc2)CC(C)O1 (stereo not drawn) [I-A-103] | 100 to 1000 |
| Nc1ncc(-c2ccc(CN3CCN(CCO)CC3)cc2)cc1-c1nnnn1-c1cccc(Cl)c1Cl [I-A-104] | ≤ 100 |
| Nc1ncc(-c2ccc(CN3CCN(Cc4ccncc4)CC3)cc2)cc1-c1nnnn1-c1cccc(Cl)c1Cl [I-A-105] | 100 to 1000 |
| CC1CN(Cc2ccc(-c3cnc(N)c(-c4nnnn4-c4cccc(Cl)c4Cl)c3)cc2)CCN1 (stereo not drawn) [I-A-106] | ≤ 100 |
| CN(Cc1ccc(-c2cnc(N)c(-c3nnnn3-c3cccc(Cl)c3Cl)c2)cc1)Cc1cccnc1 [I-A-107] | 100 to 1000 |
| NCN1CCN(Cc2ccc(-c3cnc(N)c(-c4nnnn4-c4cccc(Cl)c4Cl)c3)cc2)CC1 [I-A-108] | ≤ 100 |
| Nc1ncc(-c2cccc(CN3CCCC3)c2)cc1-c1nnnn1-c1cccc(Cl)c1Cl [I-A-109] | ≤ 100 |
| COc1ccncc1-c1cnc(N)c(-c2nncn2-c2cccc(F)c2F)c1 [I-A-110] | 100 to 1000 |

| Compound | Ki [nM] |
| --- | --- |
| Nc1ncc(-c2ccc(F)c(Cl)c2)cc1-c1nncn1-c1cccc(F)c1F [I-A-111] | 100 to 1000 |
| Nc1ncc(-c2ccc(F)cc2)cc1-c1nncn1-c1cccc(F)c1F [I-A-112] | 100 to 1000 |
| N#Cc1ccc(-c2cnc(N)c(-c3nncn3-c3cccc(F)c3F)c2)cc1 [I-A-113] | 100 to 1000 |
| Nc1ncc(-c2ccc(Cl)cc2)cc1-c1nncn1-c1cccc(F)c1F [I-A-114] | 100 to 1000 |
| Nc1ncc(-c2cccc(C(F)(F)F)c2)cc1-c1nncn1-c1cccc(F)c1F [I-A-116] | 100 to 1000 |
| Nc1ncc(-c2ccc(CN3CCC[C@@H]3CN3CCCC3)cc2)cc1-c1nnnn1-c1cccc(Cl)c1Cl [I-A-118] | ≤ 100 |
| Nc1ncc(-c2ccc(CN3CC[C@@H](O)C3)cc2)cc1-c1nnnn1-c1cccc(Cl)c1Cl [I-A-119] | ≤ 100 |
| Nc1ncc(-c2ccc(CN3CC[C@H](O)C3)cc2)cc1-c1nnnn1-c1cccc(Cl)c1Cl [I-A-120] | ≤ 100 |
| NC(=O)[C@@H]1CCCN1Cc1ccc(-c2cnc(N)c(-c3nnnn3-c3cccc(Cl)c3Cl)c2)cc1 [I-A-121] | ≤ 100 |
| Nc1ncc(-c2ccc(CN3CCC[C@H]3CO)cc2)cc1-c1nnnn1-c1cccc(Cl)c1Cl [I-A-122] | ≤ 100 |
| CN(C)Cc1cccc(-c2cnc(N)c(-c3nnnn3-c3cccc(Cl)c3Cl)c2)c1 [I-A-123] | ≤ 100 |
| CN(C)CCNC(=O)c1ccc(-c2cnc(N)c(-c3nnnn3-c3cccc(Cl)c3Cl)c2)cc1 [I-A-124] | ≤ 100 |
| CN(C)CCCNC(=O)c1ccc(-c2cnc(N)c(-c3nnnn3-c3cccc(Cl)c3Cl)c2)cc1 [I-A-125] | ≤ 100 |
| CCNC(=O)Nc1nc2cc(-c3cnc(N)c(-c4nnnn4-c4cccc(F)c4F)c3)c(F)cc2[nH]1 [I-A-140] | 100 to 1000 |
| CCNC(=O)Nc1nc2cc(-c3cnc(N)c(-c4nnnn4-c4cccc(F)c4F)c3)c(OC)cc2[nH]1 [I-A-142] | 100 to 1000 |
| CN(C)C1CCN(Cc2ccc(-c3cnc(N)c(-c4nnnn4-c4cccc(F)c4F)c3)cc2)C1 (stereo not drawn) [I-A-147] | ≤ 100 |
| CN(C)CCCN(C)S(=O)(=O)c1ccc(-c2cnc(N)c(-c3nnnn3-c3cccc(F)c3F)c2)cc1 [I-A-159] | ≤ 100 |
| Nc1ncc(-c2ccc(NC(=O)CN3CCC[C@H]3CO)cc2)cc1-c1nnnn1-c1cccc(F)c1F [I-A-160] | 100 to 1000 |
| Nc1ncc(-c2ccc(NC(=O)c3cccs3)cc2)cc1-c1nnnn1-c1cccc(F)c1F [I-A-161] | 100 to 1000 |
| Nc1ncc(-c2ccc(NC(=O)c3ccco3)cc2)cc1-c1nnnn1-c1cccc(F)c1F [I-A-162] | 100 to 1000 |
| Nc1ncc(-c2ccc(NC(=O)CN3CCOCC3)cc2)cc1-c1nnnn1-c1cccc(F)c1F [I-A-163] | 100 to 1000 |

The next lines start with the values.

| Ki [nM] | Compound |
| --- | --- |
| ≤ 100 | CC(=O)Nc1ccc(-c2cnc(N)c(-c3nnnn3-c3cccc(F)c3F)c2)c(F)c1 [I-A-126] |
| ≤ 100 | CC(=O)Nc1ccc(-c2cnc(N)c(-c3nnnn3-c3cccc(F)c3F)c2)cc1F [I-A-127] |
| ≤ 100 | Nc1ncc(-c2ccc(-n3ccnc3)nc2)cc1-c1nnnn1-c1cccc(F)c1F [I-A-128] |
| ≤ 100 | CC(N)c1ccc(-c2cnc(N)c(-c3nnnn3-c3cccc(F)c3F)c2)cn1 (stereo not drawn) [I-A-129] |
| ≤ 100 | Nc1ncc(-c2ccc(CN3CC[C@@H](O)C3)cc2)cc1-c1nnnn1-c1cccc(F)c1F [I-A-130] |
| ≤ 100 | Nc1ncc(-c2ccc(CN3CC[C@H](O)C3)cc2)cc1-c1nnnn1-c1cccc(F)c1F [I-A-131] |
| ≤ 100 | NC(=O)[C@@H]1CCCN1Cc1ccc(-c2cnc(N)c(-c3nnnn3-c3cccc(F)c3F)c2)cc1 [I-A-132] |
| ≤ 100 | Nc1ncc(-c2ccc(CN3CCC[C@H]3CO)cc2)cc1-c1nnnn1-c1cccc(F)c1F [I-A-133] |
| ≤ 100 | Nc1ncc(-c2ccc(CN3CCCCC3)cc2)cc1-c1nnnn1-c1cccc(F)c1F [I-A-134] |
| ≤ 100 | CN(C)CCNC(=O)c1ccc(-c2cnc(N)c(-c3nnnn3-c3cccc(F)c3F)c2)cc1 [I-A-135] |
| ≤ 100 | CN(C)CCCNC(=O)c1ccc(-c2cnc(N)c(-c3nnnn3-c3cccc(F)c3F)c2)cc1 [I-A-136] |
| ≤ 100 | Nc1ncc(-c2ccc(C(=O)NC3CC3)cc2)cc1-c1nnnn1-c1cccc(F)c1F [I-A-137] |
| ≤ 100 | CC(=O)Nc1ccc(-c2cnc(N)c(-c3nnnn3-c3cccc(F)c3F)c2)cc1 [I-A-138] |
| ≤ 100 | CC(=O)Nc1cccc(-c2cnc(N)c(-c3nnnn3-c3cccc(F)c3F)c2)c1 [I-A-139] |
| ≤ 100 | Nc1nc2cc(-c3cnc(N)c(-c4nnnn4-c4cccc(F)c4F)c3)c(F)cc2[nH]1 [I-A-141] |
| ≤ 100 | Nc1ncc(-c2ccsc2)cc1-c1nnnn1-c1cccc(F)c1F [I-A-143] |

| Ki [nM] | Compound |
| --- | --- |
| ≤ 100 | Nc1ncc(-c2ccc(O)cc2)cc1-c1nnnn1-c1cccc(F)c1F [I-A-144] |
| ≤ 100 | Nc1ncc(-c2ccccc2O)cc1-c1nnnn1-c1cccc(F)c1F [I-A-145] |
| ≤ 100 | CCN(CCO)Cc1ccc(-c2cnc(N)c(-c3nnnn3-c3cccc(F)c3F)c2)cc1 [I-A-146] |
| ≤ 100 | CN(CCC#N)Cc1ccc(-c2cnc(N)c(-c3nnnn3-c3cccc(F)c3F)c2)cc1 [I-A-148] |
| ≤ 100 | CCN(C)Cc1ccc(-c2cnc(N)c(-c3nnnn3-c3cccc(F)c3F)c2)cc1 [I-A-149] |
| ≤ 100 | CC(C)CN(C)Cc1ccc(-c2cnc(N)c(-c3nnnn3-c3cccc(F)c3F)c2)cc1 [I-A-150] |
| ≤ 100 | Nc1ncc(-c2ccc(CNC3CCC3)cc2)cc1-c1nnnn1-c1cccc(F)c1F [I-A-151] |
| ≤ 100 | C[C@H](c1ccc(-c2cnc(N)c(-c3nnnn3-c3cccc(F)c3F)c2)cc1)N(C)C [I-A-152] |
| ≤ 100 | C[C@@H](N)c1ccc(-c2cnc(N)c(-c3nnnn3-c3cccc(F)c3F)c2)cc1 [I-A-153] |
| 100 to 1000 | CN(C)Cc1ccc(-c2cnc(N)c(-c3nnnn3-c3cccc(F)c3F)c2)cn1 [I-A-154] |
| 100 to 1000 | NCc1ccc(-c2cnc(N)c(-c3nnnn3-c3cccc(F)c3F)c2)cn1 [I-A-155] |
| ≤ 100 | CCCN(CCC)Cc1ccc(-c2cnc(N)c(-c3nnnn3-c3cccc(F)c3F)c2)cc1 [I-A-156] |
| ≤ 100 | Nc1ncc(-c2ccc(CC3(O)CCNCC3)cc2)cc1-c1nnnn1-c1cccc(F)c1F [I-A-157] |
| ≤ 100 | Nc1ncc(C2=CCC(N)CC2)cc1-c1nnnn1-c1cccc(F)c1F (stereo not drawn) [I-A-158] |
| ≤ 100 | CN(C)Cc1ccc(-c2cnc(N)c(-c3nnnn3-c3cccc(F)c3F)c2)cc1F [I-A-165] |
| 100 to 1000 | CC(=O)c1ccc(-c2cnc(N)c(-c3nnnn3-c3cccc(F)c3F)c2)s1 [I-A-179] |
